Consider 45 compounds from patent publication US9422277B2, “Tricyclic substituted thiadiazine dioxide compounds as BACE inhibitors, compositions and their use” (Merck Sharp & Dohme Corp., priority 2012, dated 2016).

Structures are written as SMILES.

The target of experiment [1] is soluble human BACE1 catalytic domain (Homo sapiens (Human), UniProt P56817). The experiment in a line: BACE1 HTRF FRET Assay. It is filed as biochemical. The note with it: Ki calculated from IC50 using the Cheng-Prusoff equation. The source says: A homogeneous time-resolved FRET assay can be used to determine IC50 values for inhibitors of the soluble human BACE1 catalytic domain. This assay monitors the increase of 620 nm fluorescence that resulted from BACE1 cleavage of an APPswedish APP^swe mutant peptide FRET substrate (QSY7-[…]-Europium-amide). This substrate contains an N-terminal QSY7 moiety that serves as a quencher of the C-terminal Europium fluorophore (620 nm Em). In the absence of enzyme activity, 620 nm fluorescence is low in the assay and increased linearly over 3 hours in the presence of uninhibited BACE1 enzyme Inhibition of BACE1 cleavage of the QSY7-APP^swe-Eu substrate by inhibitors is manifested as a suppression of 620 nm fluorescence.
soluble human BACE1 catalytic domain, sequence (P56817 75-416): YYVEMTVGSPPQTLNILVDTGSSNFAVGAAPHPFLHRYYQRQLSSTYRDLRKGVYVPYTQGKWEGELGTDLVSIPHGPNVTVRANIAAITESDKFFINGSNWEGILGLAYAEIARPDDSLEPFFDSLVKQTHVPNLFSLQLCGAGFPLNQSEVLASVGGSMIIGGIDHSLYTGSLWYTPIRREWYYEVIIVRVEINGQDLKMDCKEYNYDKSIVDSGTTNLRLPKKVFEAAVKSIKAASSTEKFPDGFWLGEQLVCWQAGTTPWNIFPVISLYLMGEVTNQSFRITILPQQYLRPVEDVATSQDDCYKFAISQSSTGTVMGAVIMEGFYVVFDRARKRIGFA
Reactions are initiated by addition of 10 μl of 600 nM QSY7-APP^swe-Eu substrate (200 nM final) to give a final reaction volume of 30 μl in a 384 well Nunc HTRF plate. The reactions are incubated at 30° C. for 1.5 hours. The 620 nm fluorescence is then read on a Rubystar HTRF plate reader (BMG Labtechnologies) using a 50 millisecond delay followed by a 400 millisecond acquisition time window Inhibitor IC50 values are derived from non-linear regression analysis of concentration response curves.

Experiment [2] deals with purified human autoBACE-2 (Homo sapiens (Human), UniProt Q9Y5Z0). The experiment in a line: BACE-2 Assay (BACE-HTRF assay). It is filed as biochemical. To be noted: Ki calculated from IC50 using the Cheng-Prusoff equation; read-out: BACE2 Ki. On the procedure: Inhibitor IC50s at purified human autoBACE-2 are determined in a time-resolved endpoint proteolysis assay that measures hydrolysis of the QSY7-[…]-Eu-amide FRET peptide substrate (BACE-HTRF assay). BACE-mediated hydrolysis of this peptide results in an increase in relative fluorescence (RFU) at 620 nm after excitation with 320 nm light Inhibitor compounds, prepared at 3× the desired final concentration in 1×BACE assay buffer (20 mM sodium acetate pH 5.0, 10% glycerol, 0.1% Brij-35) supplemented with 7.5% DMSO are pre-incubated with an equal volume of autoBACE-2 enzyme diluted in 1×BACE assay buffer (final enzyme concentration 1 nM) in black 384-well NUNC plates for 30 minutes at 30° C. […] DMSO is present at 5% final concentration in the assay. Following laser excitation of sample wells at 320 nm, the fluorescence signal at 620 nm is collected for 400 ms following a 50 μs delay on a RUBYstar HTRF plate reader (BMG Labtechnologies). Raw RFU data is normalized to maximum (1.0 nM BACE/DMSO) and minimum (no enzyme/DMSO) RFU values. IC50s are determined by nonlinear regression analysis (sigmoidal dose response, variable slope) of percent inhibition data with minimum and maximum values set to 0 and 100 percent respectively. Similar IC50s are obtained when using raw RFU data. The Ki values are calculated from the IC50 using the Cheng-Prusoff equation.
purified human autoBACE-2, sequence (Q9Y5Z0 63-473 limits assumed): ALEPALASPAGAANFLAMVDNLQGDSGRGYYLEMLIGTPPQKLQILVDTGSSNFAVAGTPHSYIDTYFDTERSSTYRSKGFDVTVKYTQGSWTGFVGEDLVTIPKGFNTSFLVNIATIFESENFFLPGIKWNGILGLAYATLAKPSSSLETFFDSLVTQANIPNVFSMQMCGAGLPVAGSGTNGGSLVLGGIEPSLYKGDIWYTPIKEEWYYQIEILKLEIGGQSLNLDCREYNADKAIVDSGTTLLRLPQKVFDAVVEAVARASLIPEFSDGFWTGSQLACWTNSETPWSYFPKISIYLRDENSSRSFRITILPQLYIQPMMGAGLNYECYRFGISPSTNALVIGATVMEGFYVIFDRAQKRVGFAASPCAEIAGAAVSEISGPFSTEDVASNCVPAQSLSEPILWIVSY

The Ki is the equilibrium dissociation constant of an inhibitor or competing ligand from its target. With `CN1C(=N)N[C@](C)(c2sc(-c3nnc(-c4ccc(F)c(F)c4)o3)cc2Cl)CS1(=O)=O` [Example 59], the figures for the inhibition constant Ki in experiment [1] and in experiment [2] were 0.118 µM and 0.0813 µM, respectively.

`CN1C(=N)N[C@](C)(c2sc(-c3nnc(-c4ccc(C5(C#N)COC5)cc4)o3)cc2Cl)CS1(=O)=O` [Example 66]: the Ki is 1.36 µM in experiment [1] and 1.07 µM in experiment [2].

Turning to `CN1C(=N)N[C@](C)(c2sc(-c3nnc(-c4ccccn4)o3)cc2Cl)CS1(=O)=O` [Example 21], the inhibition constant (Ki) was 0.555 µM in experiment [1] and 0.0584 µM in experiment [2].

For the compound `CN1C(=N)N[C@](C)(c2sc(-c3nnc(-c4ccncn4)o3)cc2Cl)CS1(=O)=O` [Example 43], the figures for the Ki in experiment [1] and in experiment [2] were 0.823 µM and 0.305 µM, respectively.

With `CN1C(=N)N[C@](C)(c2sc(-c3nnc(-c4ccon4)o3)cc2Cl)CS1(=O)=O` [Example 44], the Ki was 1.34 µM in experiment [1] and 0.157 µM in experiment [2].

Take `CN1C(=N)N[C@](C)(c2sc(-c3nnc(-c4ncccn4)o3)cc2Cl)CS1(=O)=O` [Example 36]: the results for the Ki in experiment [1] and in experiment [2] were 0.778 µM and 0.104 µM, respectively.

`COC(=O)Cc1ccc(-c2nnc(-c3cc(Cl)c([C@]4(C)CS(=O)(=O)N(C)C(=N)N4)s3)o2)cc1` [Example 80]: the Ki is 0.138 µM in experiment [1] and 0.671 µM in experiment [2].

With `CN1C(=N)N[C@](C)(c2sc(-c3nnc(-c4ccc5[nH]cnc5c4)o3)cc2Cl)CS1(=O)=O` [Example 58], the results for the Ki in experiment [1] and in experiment [2] were 0.964 µM and 1.3 µM, respectively.

In the case of `CN1C(=N)N[C@](C)(c2sc(-c3nnc(-c4ccncc4)o3)cc2Cl)CS1(=O)=O` [Example 28], the inhibition constant Ki was 0.558 µM in experiment [1] and 0.332 µM in experiment [2].

Regarding `CN1C(=N)N[C@](C)(c2sc(-c3cnn(-c4ccccc4)c3)cc2Cl)CS1(=O)=O` [Example 85], the Ki is 0.265 µM in experiment [1] and 0.0279 µM in experiment [2].

In the case of `CN1C(=N)N[C@](C)(c2sc(-c3nnc(-c4ccc5c(c4)C(=O)CC5)o3)cc2Cl)CS1(=O)=O` [Example 74], the Ki in experiment [1] was 0.887 µM; in experiment [2], 1.99 µM.

For the compound `CN1C(=N)N[C@](C)(c2sc(-c3ccc(-c4nnc(C5CC5)o4)[nH]3)cc2Cl)CS1(=O)=O` [Example 10], the Ki was 0.087 µM in experiment [1] and 0.0113 µM in experiment [2].

As for `CN1C(=N)N[C@](C)(c2sc(-c3nnc(-c4cnccn4)o3)cc2Cl)CS1(=O)=O` [Example 27], the figures for the inhibitory constant (Ki) in experiment [1] and in experiment [2] were 0.683 µM and 0.284 µM, respectively.

Turning to `CN1C(=N)N[C@](C)(c2sc(-c3nnc(-c4cnn(C)c4)o3)cc2Cl)CS1(=O)=O` [Example 45], the Ki in experiment [1] is 0.407 µM; in experiment [2], 0.226 µM.

In the case of `CN1C(=N)N[C@](C)(c2sc(-c3nnc(-c4cncs4)o3)cc2Cl)CS1(=O)=O` [Example 33], the values for the Ki in experiment [1] and in experiment [2] were 0.863 µM and 0.347 µM, respectively.

Turning to `CN1C(=N)N[C@](C)(c2cc(-c3nnc(-c4ccccc4)o3)ccc2F)CS1(=O)=O` [Example 24], the Ki in experiment [1] was 9.87 µM; in experiment [2] it was 1.49 µM.

As for `CN1C(=N)N[C@](C)(c2sc(-c3nnc(-c4cccc5ccnn45)o3)cc2Cl)CS1(=O)=O` [Example 34], the inhibitory constant (Ki) in experiment [1] was 0.561 µM; in experiment [2], 0.217 µM.

Consider `CN1C(=N)N[C@](C)(c2sc(-c3nnc(-c4cscn4)o3)cc2Cl)CS1(=O)=O` [Example 37], for which the Ki in experiment [1] was 0.662 µM; in experiment [2], 0.0691 µM.

With `CCCCCOc1ccc(-c2nnc(-c3cc(Cl)c([C@]4(C)CS(=O)(=O)N(C)C(=N)N4)s3)o2)cc1` [Example 64], the Ki in experiment [1] was 0.16 µM; in experiment [2], 0.356 µM.

For the compound `CN1C(=N)N[C@](C)(c2sc(-c3nnc(-c4ccc5scnc5c4)o3)cc2Cl)CS1(=O)=O` [Example 73], the figures for the Ki in experiment [1] and in experiment [2] were 0.171 µM and 0.336 µM, respectively.

Regarding `CN1C(=N)N[C@](C)(c2sc(-c3nnc(-c4ccc(N5CCCCC5)cc4)o3)cc2Cl)CS1(=O)=O` [Example 68], the figures for the Ki in experiment [1] and in experiment [2] were 5.36 µM and 2.99 µM, respectively.

Take `CN1C(=N)N[C@](C)(c2sc(-c3nnc(-c4cnco4)o3)cc2Cl)CS1(=O)=O` [Example 40]: the Ki in experiment [1] was 0.25 µM; in experiment [2] it was 0.142 µM.

With `CN1C(=N)N[C@](C)(c2sc(-c3nnc(-c4ccnn4C)o3)cc2Cl)CS1(=O)=O` [Example 47], the Ki in experiment [1] was 1.53 µM; in experiment [2], 0.712 µM.

For `CN1C(=N)N[C@](C)(c2cc(-c3cc(-c4ccccc4)on3)ccc2F)CS1(=O)=O` [Example 13], the Ki in experiment [1] was 0.91 µM; in experiment [2], 0.207 µM.

On to `CN1C(=N)N[C@](C)(c2sc(-c3nnc(-c4ccc(OC(F)F)cc4)o3)cc2Cl)CS1(=O)=O` [Example 79], for which the Ki in experiment [1] is 0.0516 µM; in experiment [2], 0.132 µM.

For the compound `Cc1nnc(-c2ccc(-c3cc(Cl)c([C@]4(C)CS(=O)(=O)N(C)C(=N)N4)s3)[nH]2)o1` [Example 9], the inhibition constant Ki in experiment [1] is 0.0081 µM; in experiment [2] it was 0.00824 µM.

Regarding `CN1C(=N)N[C@](C)(c2sc3c(-c4cnn(-c5ccccc5)c4)cccc3c2F)CS1(=O)=O` [Example 81], the Ki in experiment [1] was 1.46 µM; in experiment [2] it was 0.337 µM.

Consider `CN1C(=N)N[C@](C)(c2sc(-c3nnc(-c4ccc(Cl)cc4F)o3)cc2Cl)CS1(=O)=O` [Example 57], for which the inhibition constant (Ki) in experiment [1] is 0.0507 µM; in experiment [2], 0.0168 µM.

As to `CN1C(=N)N[C@](C)(c2cc(-c3nnc(-c4ccc(Cl)cc4)o3)ccc2F)CS1(=O)=O` [Example 25], the Ki in experiment [1] is 2.59 µM; in experiment [2], 0.595 µM.

`CN1C(=N)N[C@](C)(c2sc(-c3[nH]cnc3-c3ccccc3)cc2Cl)CS1(=O)=O` [Example 4]: the Ki in experiment [1] is 9.03 µM; in experiment [2] it was 3.12 µM.

For the compound `CN1C(=N)N[C@](C)(c2sc(-c3nnc(C4CC4)o3)cc2Cl)CS1(=O)=O` [Example 48], the inhibition constant (Ki) is 0.882 µM in experiment [1] and 0.116 µM in experiment [2].

As for `CN1C(=N)N[C@](C)(c2sc(-c3cn(-c4ccccc4)nn3)cc2Cl)CS1(=O)=O` [Example 5], the Ki is 1.99 µM in experiment [1] and 0.281 µM in experiment [2].

Consider `CN1C(=N)N[C@](C)(c2sc3c(-c4coc(-c5ccc(F)cc5)n4)cccc3c2F)CS1(=O)=O` [Example 82], for which the Ki in experiment [1] was 4.89 µM; in experiment [2] it was 2.94 µM.

For `CN1C(=N)N[C@](C)(c2cc(-c3cc(-c4ccccc4)on3)ccc2F)CS1(=O)=O` [Example 15], the Ki in experiment [1] is 0.326 µM; in experiment [2] it was 0.0526 µM.

Turning to `CN1C(=N)N[C@](C)(c2cc(-c3nnc(-c4cocn4)o3)ccc2F)CS1(=O)=O` [Example 54], the inhibitory constant (Ki) in experiment [1] is 7.55 µM; in experiment [2] it was 1.69 µM.

Take `CC1CN=C(c2ccc(-c3cc(Cl)c([C@]4(C)CS(=O)(=O)N(C)C(=N)N4)s3)[nH]2)O1` (stereo partly drawn) [Example 7]: the figures for the Ki in experiment [1] and in experiment [2] were 0.087 µM and 0.035 µM, respectively.

On to `CN1C(=N)N[C@](C)(c2cc(-c3nnc(-c4cscn4)o3)ccc2F)CS1(=O)=O` [Example 51], for which the results for the Ki in experiment [1] and in experiment [2] were 8.6 µM and 1.54 µM, respectively.

Regarding `CN1C(=N)N[C@](C)(c2cc(-c3nnc(-c4cnco4)o3)ccc2F)CS1(=O)=O` [Example 26], the results for the Ki in experiment [1] and in experiment [2] were 1.25 µM and 0.801 µM, respectively.

Turning to `CN1C(=N)N[C@](C)(c2sc(-c3nnc(C4Cc5ccccc5C4)o3)cc2Cl)CS1(=O)=O` [Example 38], the values for the Ki in experiment [1] and in experiment [2] were 0.255 µM and 0.124 µM, respectively.

Regarding `CN1C(=N)N[C@](C)(c2sc(-c3nnc(-c4ncco4)o3)cc2Cl)CS1(=O)=O` [Example 41], the Ki in experiment [1] is 0.441 µM; in experiment [2] it was 0.0317 µM.

Take `CN1C(=N)N[C@](C)(c2sc(-c3ncc(-c4ccccc4)[nH]3)cc2Cl)CS1(=O)=O` [Example 2]: the Ki in experiment [1] was 0.112 µM; in experiment [2] it was 0.0148 µM.

Take `CN1C(=N)N[C@](C)(c2sc3c(-c4cnc(-c5ccc(F)cc5)o4)cccc3c2F)CS1(=O)=O` [Example 83]: the Ki in experiment [1] is 3.18 µM; in experiment [2], 3.31 µM.

Consider `CN1C(=N)N[C@](C)(c2sc(-c3nnc(-c4ccc(C#N)cc4)o3)cc2Cl)CS1(=O)=O` [Example 23], for which the values for the Ki in experiment [1] and in experiment [2] were 0.0346 µM and 0.0449 µM, respectively.

On to `CN1C(=N)N[C@](C)(c2sc(-c3ncc(-c4ccccn4)[nH]3)cc2Cl)CS1(=O)=O` [Example 3], for which the Ki was 0.47 µM in experiment [1] and 0.0879 µM in experiment [2].

As to `CN1C(=N)N[C@](C)(c2sc(-c3nnc(-c4ccc(N5CCCC5=O)cc4)o3)cc2Cl)CS1(=O)=O` [Example 69], the Ki in experiment [1] was 1.03 µM; in experiment [2], 1.07 µM.
